Read-outs that look alike come from different tables or passages of the source. Starred links: 1 amine or outer side, 2 acyl side, 3 side chain; linkers in the order of their positions; H or OH if unused. Positions of bridges follow the written chain, without caps; N, C: chain ends. Non-standard residues stand in square brackets, D forms with d. Residues, ends and D or L forms follow the SMILES beside them. *: point of attachment. X6 = CS(=O)(=O)c1ccc(-c2ccc(C[C@H](N[*:1])C(=O)[*:2])cc2)cc1; Phe(3-OCH2COOH) = N[C@@H](Cc1cccc(OCC(=O)O)c1)C(=O)O; Piperidine(4-CH2CH2CONH2) = NC(=O)CCC1CCN(*)CC1; Phe(4-COOH) = N[C@@H](Cc1ccc(C(=O)O)cc1)C(=O)O; Trp(6-aza) = N[C@@H](Cc1c[nH]c2cnccc12)C(=O)O; Piperazinyl(4-CH2COOH) = O=C(O)CN1CCN(*)CC1; Piperidinyl(4-CH2COOH) = O=C(O)CC1CCN(*)CC1; Gly(decyl) = CCCCCCCCCC[C@H](N)C(=O)O; X1 = CCCCCCC[C@H](N[*:1])C(=O)[*:2]; NMeCha = CN[C@@H](CC1CCCCC1)C(=O)O; NMeF = CN[C@@H](Cc1ccccc1)C(=O)O; NMeE = CN[C@@H](CCC(=O)O)C(=O)O; NMeA = CN[C@@H](C)C(=O)O; X9 = NC(=O)CC1CCN(*)CC1; NEtG = CCNCC(=O)O; Sar = CNCC(=O)O
Assays:
Type in all cases: cell-based
Myostatin [1] = target: T1, Myostatin (Homo sapiens, UniProt O14793); test: Reporter gene assay for myostatin signaling in HepG2 cell line, Evaluation Procedure (1), myostatin inhibition; settings: read-out: IC50 (Luciferase) Myostatin HepG2
T1 construct: active myostatin (also called mature myostatin) is a homodimer consisting of two C-terminal growth factor domains; purchased R&D systems 788-G8/CF
T1 sequence (O14793 267-375): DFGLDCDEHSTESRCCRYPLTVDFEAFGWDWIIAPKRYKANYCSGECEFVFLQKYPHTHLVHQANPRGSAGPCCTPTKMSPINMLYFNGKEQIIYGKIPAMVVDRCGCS
Procedure, shortened: (§1)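 IC50 derived from One-Glo luciferase luminescence after 20–24 h at 37 °C. Peptides titrated 4-fold at 0.006–100 nmol/L against myostatin or 0.12–2000 nmol/L against GDF-11 in HepG2 cells carrying a transfected CAGA12-luciferase reporter, kept in 0.1% BSA EMEM.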

Myostatin [2] = test: as above; settings: GDF-11 IC50 versus Myostatin IC50
Procedure, shortened: as §1

GDF-11 = target: T2, GDF-11 (Homo sapiens, UniProt O95390); test: Reporter gene assay for myostatin signaling in HepG2 cell line, Evaluation Procedure (1), GDF-11 inhibition; settings: read-out: IC50 (Luciferase) GDF-11 HepG2
T2 construct: purchased R&D systems 1958-GD-G8/CF
T2 sequence (O95390 299-407): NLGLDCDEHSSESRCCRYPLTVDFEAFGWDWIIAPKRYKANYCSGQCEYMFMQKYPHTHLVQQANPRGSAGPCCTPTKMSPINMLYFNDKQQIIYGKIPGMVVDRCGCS
Procedure, shortened: as §1

Structure (SMILES)	IC50 (Myostatin [1]; Method B: Myostatin 1 ng/mL) [nM]	IC50 (GDF-11; Method B: GDF-11 1 ng/mL) [nM]	Selectivity (Myostatin [2]; Method B)	further results
CCCCCCC[C@@H]1NC(=O)[C@H](Cc2ccccc2)N(C)C(=O)[C@H](CCCNC(=N)N)NC(=O)[C@H](Cc2ccc(C(=O)O)cc2)NC(=O)[C@H](Cc2cccc(OCC(=O)O)c2)NC(=O)[C@H]2CCCN2C(=O)[C@H]([C@@H](C)CC)NC(=O)[C@H](Cc2ccccc2)N(C)C(=O)[C@H](Cc2ccc(O)cc2)NC(=O)[C@H](Cc2c[nH]c3ccccc23)NC(=O)[C@@H](CCC(=O)O)NC(=O)[C@H](C)NC(=O)CSC[C@H](C(=O)N2CCN(CC(=O)O)CC2)NC(=O)[C@H](Cc2ccccc2)N(C)C(=O)[C@H](C)N(C)C1=O [Myostatin_99_v254] ({CH2CO}-A[dE]WY[NMeF]I[dP][Phe(3-OCH2COOH)][Phe(4-COOH)]R[NMeF][X1][NMeA][NMeF][dC]-{Piperazinyl(4-CH2COOH)}; thioether N-15)				IC50 (Myostatin [1]; Method A: Myostatin 10 ng/mL): 3.6 nM; Selectivity (Myostatin [2]; Method A): 921; IC50 (GDF-11; Method A: GDF-11 10 ng/mL): 3310 nM
CCCCCCC[C@@H]1NC(=O)[C@H](Cc2ccccc2)N(C)C(=O)[C@H](CCCNC(=N)N)NC(=O)[C@H](Cc2ccc(C(=O)O)cc2)NC(=O)[C@H](Cc2cccc(OCC(=O)O)c2)NC(=O)CN(C)C(=O)[C@H]([C@@H](C)CC)NC(=O)[C@H](CC2CCCCC2)N(C)C(=O)[C@H](Cc2ccc(O)cc2)NC(=O)[C@H](Cc2c[nH]c3ccccc23)NC(=O)[C@@H](CCC(=O)O)NC(=O)[C@H](C)NC(=O)CSC[C@H](C(=O)N2CCN(CC(=O)O)CC2)NC(=O)[C@H](Cc2ccccc2)N(C)C(=O)[C@H](C)N(C)C1=O [Myostatin_99_v255] ({CH2CO}-A[dE]WY[NMeCha]I[Sar][Phe(3-OCH2COOH)][Phe(4-COOH)]R[NMeF][X1][NMeA][NMeF][dC]-{Piperazinyl(4-CH2COOH)}; thioether N-15)				IC50 (Myostatin [1]; Method A: Myostatin 10 ng/mL): 1.6 nM; Selectivity (Myostatin [2]; Method A): 119; IC50 (GDF-11; Method A: GDF-11 10 ng/mL): 191 nM
CCCCCCCCCC[C@@H]1NC(=O)[C@H](Cc2ccccc2)N(C)C(=O)[C@H](CCCNC(=N)N)NC(=O)[C@H](Cc2ccc(C(=O)O)cc2)NC(=O)[C@H](Cc2cccc(OCC(=O)O)c2)NC(=O)[C@H]2CCCN2C(=O)[C@H]([C@@H](C)CC)NC(=O)[C@H](Cc2ccccc2)N(C)C(=O)[C@H](Cc2ccc(O)cc2)NC(=O)[C@H](Cc2c[nH]c3ccccc23)NC(=O)[C@H](C)NC(=O)[C@H](C)NC(=O)CSC[C@H](C(=O)N2CCN(CC(=O)O)CC2)NC(=O)[C@H](Cc2ccccc2)N(C)C(=O)[C@H](CCC(=O)O)N(C)C1=O [Myostatin_99_v309] ({CH2CO}-AAWY[NMeF]I[dP][Phe(3-OCH2COOH)][Phe(4-COOH)]R[NMeF][Gly(decyl)][NMeE][NMeF][dC]-{Piperazinyl(4-CH2COOH)}; thioether N-15)	0.09	25	287	
CCCCCCC[C@@H]1NC(=O)[C@H](Cc2ccccc2)N(C)C(=O)[C@H](CCCNC(=N)N)NC(=O)[C@H](Cc2ccc(C(=O)O)cc2)NC(=O)[C@H](Cc2cccc(OCC(=O)O)c2)NC(=O)CN(C)C(=O)[C@H]([C@@H](C)CC)NC(=O)[C@H](Cc2ccccc2)N(C)C(=O)[C@H](Cc2ccc(O)cc2)NC(=O)[C@H](Cc2c[nH]c3ccccc23)NC(=O)[C@H](C)NC(=O)[C@H](C)NC(=O)CSC[C@H](C(=O)N2CCC(CC(N)=O)CC2)NC(=O)[C@H](Cc2ccccc2)N(C)C(=O)[C@H](CCC(=O)O)N(C)C1=O [Myostatin_99_v315] ({CH2CO}-AAWY[NMeF]I[Sar][Phe(3-OCH2COOH)][Phe(4-COOH)]R[NMeF][X1][NMeE][NMeF][dC]-X9; thioether N-15)	0.1	56.8	541.6	
CCCCCCCCCC[C@@H]1NC(=O)[C@H](Cc2ccccc2)N(C)C(=O)[C@H](CCCNC(=N)N)NC(=O)[C@H](Cc2ccc(C(=O)O)cc2)NC(=O)[C@H](Cc2cccc(OCC(=O)O)c2)NC(=O)[C@H]2CCCN2C(=O)[C@H]([C@@H](C)CC)NC(=O)[C@H](Cc2ccccc2)N(C)C(=O)[C@H](Cc2ccc(O)cc2)NC(=O)[C@H](Cc2ccc(-c3ccc(S(C)(=O)=O)cc3)cc2)NC(=O)[C@H](C)NC(=O)[C@H](C)NC(=O)CSC[C@H](C(=O)N2CCN(CC(=O)O)CC2)NC(=O)[C@H](Cc2ccccc2)N(C)C(=O)[C@H](CCC(=O)O)N(C)C1=O [Myostatin_99_v343] ({CH2CO}-AA[X6]Y[NMeF]I[dP][Phe(3-OCH2COOH)][Phe(4-COOH)]R[NMeF][Gly(decyl)][NMeE][NMeF][dC]-{Piperazinyl(4-CH2COOH)}; thioether N-15)				IC50 (Myostatin [1]; Method C: Myostatin 1.5 ng/mL): 0.1 nM; Selectivity (Myostatin [2]; Method C): 137.1; IC50 (GDF-11; Method C: GDF-11 1 ng/mL): 14.3 nM

More lines, main results first:

IC50 (Myostatin [1]; Method B: Myostatin 1 ng/mL) [nM]	IC50 (GDF-11; Method B: GDF-11 1 ng/mL) [nM]	Structure (SMILES)	Selectivity (Myostatin [2]; Method B)	further results
0.37	89.7	CCCCCCC[C@@H]1NC(=O)[C@H](Cc2ccccc2)N(C)C(=O)[C@H](CCCNC(=N)N)NC(=O)[C@H](Cc2ccc(C(=O)O)cc2)NC(=O)[C@H](Cc2cccc(OCC(=O)O)c2)NC(=O)CN(C)C(=O)[C@H]([C@@H](C)CC)NC(=O)[C@H](Cc2ccccc2)N(C)C(=O)[C@H](Cc2ccc(O)cc2)NC(=O)[C@H](Cc2c[nH]c3ccccc23)NC(=O)[C@H](C)NC(=O)[C@H](C)NC(=O)CSC[C@H](C(=O)N2CCC(CCC(N)=O)CC2)NC(=O)[C@H](Cc2ccccc2)N(C)C(=O)[C@H](CCC(=O)O)N(C)C1=O [Myostatin_99_v316] ({CH2CO}-AAWY[NMeF]I[Sar][Phe(3-OCH2COOH)][Phe(4-COOH)]R[NMeF][X1][NMeE][NMeF][dC]-{Piperidine(4-CH2CH2CONH2)}; thioether N-15)	239.8	
0.32	46.6	CCCCCCCCCC[C@@H]1NC(=O)[C@H](Cc2ccccc2)N(C)C(=O)[C@H](CCCNC(=N)N)NC(=O)[C@H](Cc2ccc(C(=O)O)cc2)NC(=O)[C@H](Cc2cccc(OCC(=O)O)c2)NC(=O)[C@H]2CCCN2C(=O)[C@H]([C@@H](C)CC)NC(=O)[C@H](Cc2ccccc2)N(C)C(=O)[C@H](Cc2ccc(O)cc2)NC(=O)[C@H](Cc2c[nH]c3ccccc23)NC(=O)[C@H](C)NC(=O)[C@H](C)NC(=O)CSC[C@H](C(=O)N2CCC(CC(=O)O)CC2)NC(=O)[C@H](Cc2ccccc2)N(C)C(=O)[C@H](CCC(=O)O)N(C)C1=O [Myostatin_99_v335] ({CH2CO}-AAWY[NMeF]I[dP][Phe(3-OCH2COOH)][Phe(4-COOH)]R[NMeF][Gly(decyl)][NMeE][NMeF][dC]-{Piperidinyl(4-CH2COOH)}; thioether N-15)	145.0	
0.38	114	CCCCCCCCCC[C@@H]1NC(=O)[C@H](Cc2ccccc2)N(C)C(=O)[C@H](CCCNC(=N)N)NC(=O)[C@H](Cc2ccc(C(=O)O)cc2)NC(=O)[C@H](Cc2cccc(OCC(=O)O)c2)NC(=O)[C@H]2CCCN2C(=O)[C@H]([C@@H](C)CC)NC(=O)[C@H](Cc2ccccc2)N(C)C(=O)[C@H](Cc2ccc(O)cc2)NC(=O)[C@H](Cc2c[nH]c3cnccc23)NC(=O)[C@H](C)NC(=O)[C@H](C)NC(=O)CSC[C@H](C(=O)N2CCC(CC(=O)O)CC2)NC(=O)[C@H](Cc2ccccc2)N(C)C(=O)[C@H](CCC(=O)O)N(C)C1=O [Myostatin_99_v338] ({CH2CO}-AA[Trp(6-aza)]Y[NMeF]I[dP][Phe(3-OCH2COOH)][Phe(4-COOH)]R[NMeF][Gly(decyl)][NMeE][NMeF][dC]-{Piperidinyl(4-CH2COOH)}; thioether N-15)	299.8	
0.89	128	CCCCCCCCCC[C@@H]1NC(=O)[C@H](Cc2ccccc2)N(C)C(=O)[C@H](CCCNC(=N)N)NC(=O)[C@H](Cc2ccc(C(=O)O)cc2)NC(=O)[C@H](Cc2cccc(OCC(=O)O)c2)NC(=O)CN(CC)C(=O)[C@H]([C@@H](C)CC)NC(=O)[C@H](Cc2ccccc2)N(C)C(=O)[C@H](Cc2ccc(O)cc2)NC(=O)[C@H](Cc2c[nH]c3cnccc23)NC(=O)[C@H](C)NC(=O)[C@H](C)NC(=O)CSC[C@H](C(=O)N2CCC(CC(=O)O)CC2)NC(=O)[C@H](Cc2ccccc2)N(C)C(=O)[C@H](CCC(=O)O)N(C)C1=O [Myostatin_99_v339] ({CH2CO}-AA[Trp(6-aza)]Y[NMeF]I[NEtG][Phe(3-OCH2COOH)][Phe(4-COOH)]R[NMeF][Gly(decyl)][NMeE][NMeF][dC]-{Piperidinyl(4-CH2COOH)}; thioether N-15)	144.7	
0.76	132	CCCCCCCCCC[C@@H]1NC(=O)[C@H](Cc2ccccc2)N(C)C(=O)[C@H](CCCNC(=N)N)NC(=O)[C@H](Cc2ccc(C(=O)O)cc2)NC(=O)[C@H](Cc2cccc(OCC(=O)O)c2)NC(=O)CN(C)C(=O)[C@H]([C@@H](C)OC)NC(=O)[C@H](Cc2ccccc2)N(C)C(=O)[C@H](Cc2ccc(O)cc2)NC(=O)[C@H](Cc2c[nH]c3cnccc23)NC(=O)[C@H](C)NC(=O)[C@H](C)NC(=O)CSC[C@H](C(=O)N2CCC(CC(=O)O)CC2)NC(=O)[C@H](Cc2ccccc2)N(C)C(=O)[C@H](CCC(=O)O)N(C)C1=O [Myostatin_99_v341] ({CH2CO}-AA[Trp(6-aza)]Y[NMeF]T(Me)[Sar][Phe(3-OCH2COOH)][Phe(4-COOH)]R[NMeF][Gly(decyl)][NMeE][NMeF][dC]-{Piperidinyl(4-CH2COOH)}; thioether N-15)	173.9	
